Results published in patent publication US20160230142A1, “CORNEAL STROMAL KERATOCYTE CULTURE” (SINGAPORE HEALTH SERVIES PTE LTD., priority 2013, published 2016).

What was measured:
Type in all cases: cell-based
primary human CSKs = experiment: F-actin stress fiber pattern by phalloidin staining (stress index)
Description: Cornea specimens were washed in sterile PBS (0.01 M, Invitrogen, Carlsbad, Calif., US) added with 3% antibiotics-antimycotes (penicillin S, streptomysin sulfate and amphoptericin B, Invitrogen). Central corneal buttons (1 mm from peripheral limbus) were trephined and treated with dispase II (20 mg/ml, Roche, Basal, Switzerland) to remove corneal epithelium and endothelium. The stroma tissue was trimmed into small fragments (˜1 mm^3 in size) and digested with collagenase I (0.1%, Worthington, Lakewood, N.J., US) in keratocyte basal medium (KBM) for 8 to 10 hours at 37° C. After repeat pipetting, the cell suspension was passed through cell strainer (40 μm pore size), followed by centrifugation at 400 g for 5 min at room temperature. […]
The samples were fixed with freshly prepared 2% neutral buffered paraformaldehyde (Sigma), quenched with ice-cold 50 mM ammonium chloride (Sigma) and permeabilized with 0.15% saponin (Sigma). […] Results were visualized under fluorescence microscopy (Carl Zeiss) or confocal laser-scanning microscopy (LSM 510 Meta, Carl Zeiss).
[…] The percentage of stress cells in triplicate experiments was expressed as mean±SD. Results were compared and analyzed by paired Student's t-test and Dunn-Bonferroni correction.

Smad2/3 = experiment: TGFβ-mediated nuclear localization of Smad2/3 (immunofluorescence); conditions: TGFβ1 10 ng/ml, human CSKs at passage 5
Description: The samples were fixed with freshly prepared 2% neutral buffered paraformaldehyde (Sigma), quenched with ice-cold 50 mM ammonium chloride (Sigma) and permeabilized with 0.15% saponin (Sigma). After blocking with 2% bovine serum albumin (Sigma) and 2% normal goat serum (Invitrogen), the cells were incubated with primary antibody recognizing aldehyde dehydrogenase 1A1 (ALDH1A1, Proteintech), lumican (LUM, Bioss), transketolase (Tkt, Cell Signalling), αSMA (Sigma) or Alexa Fluor 543-conjugated phalloidin (Sigma), respectively. The secondary antibodies were either Alexa488 or Rhodamine Red-X-conjugated (Jackson ImmunoRes Lab, West Grove, Pa.). All nuclei were counterstained with DAPI (4′,6-diamidino-2-phenylindole, Santa Cruz) and samples were mounted in FluorShield (Sigma). Results were visualized under fluorescence microscopy (Carl Zeiss) or confocal laser-scanning microscopy (LSM 510 Meta, Carl Zeiss).
To examine if LAE (ASE) was effective in suppressing CSK transition to fibroblasts, TGFβ-mediated nuclear localization of Smad2/3 was studied.

[1] = system: human CSKs (at passage 6); experiment: Collagen gel contraction assay; conditions: TGFβ1 (20 ng/ml) added to KBM with 2% FBS, 48 hours
Description: Bovine type I collagen gels were made to a final concentration of 2.5 mg/ml as liquid with KBM and supplements. It was mixed with cells at a density of 10^5 cells/ml and 0.5 ml mixture was added to each well of 24-multiwell plate coated with 1% BSA. It was allowed to gelation at 37° C. for 1 hour before addition of appropriate medium. After 24 hours, the gel was released from the side of culture well with a sterile needle to initiate contraction. The collagen gel size change was recorded at 48-hour interval and measured using Image J software (NIH). The percentages of collagen gel size to the size of culture well were compared among different treatments. Experiment was done in quadruplicate and the percentages of gel contraction were represented as median and interquartile range. Intergroup significance was calculated by Mann-Whitney U test.

C[C@@H](N)[C@H]1CC[C@H](C(=O)Nc2ccncc2)CC1 [Y27632, (1R,4r)-4-((R)-1-aminoethyl)-N-(pyridin-4-yl)cyclohexanecarboxamide]
stress index (percentage of cells with stress fibre pattern) (primary human CSKs; Y27632 (10 μM) added to KBM+0.5% FBS, 5 random fields): 7.6±2.9%

IGF1: insulin-like growth factor 1 (10 ng/ml, Invitrogen)
cells with stress F-actin fibre (primary human CSKs; IGF1-treated cells with 0.5% FBS): 29.3±7.3%

TGFβ1: recombinant human TGFβ1
cells with nuclear Smad2/3 (Smad2/3; 3 days): 43.8% | cells with nuclear Smad2/3 (Smad2/3; incubated for 3 hours): 22% | gel contraction (median) [1]: 91.7%
